Tests used:
Format in all cases: cell-based
Cav1.2 [1] = target: T1, Cav1.2 (Homo sapiens, UniProt Q13936); assay: whole-cell patch clamp of ICa in transfected HEK293 cells, VH -80 mV; settings: read-out: % reduction of ICa amplitude at 1 μM
T1 construct: gene CACNA1C; human Cav1.2 expressed in HEK293 cells (plasmid printed as pCDNA3.1hCACNA2D)

Nav1.5 = target: T2, Nav1.5 (Homo sapiens, UniProt Q14524); assay: whole-cell patch clamp in transfected HEK293 cells; steady-state inactivation left-shifted at […], no change in current density or activation
T2 construct: gene SCN5A; human Nav1.5 (pCDNA3.1hSCN5A) expressed in HEK293 cells
T2 sequence (Q14524 whole entry): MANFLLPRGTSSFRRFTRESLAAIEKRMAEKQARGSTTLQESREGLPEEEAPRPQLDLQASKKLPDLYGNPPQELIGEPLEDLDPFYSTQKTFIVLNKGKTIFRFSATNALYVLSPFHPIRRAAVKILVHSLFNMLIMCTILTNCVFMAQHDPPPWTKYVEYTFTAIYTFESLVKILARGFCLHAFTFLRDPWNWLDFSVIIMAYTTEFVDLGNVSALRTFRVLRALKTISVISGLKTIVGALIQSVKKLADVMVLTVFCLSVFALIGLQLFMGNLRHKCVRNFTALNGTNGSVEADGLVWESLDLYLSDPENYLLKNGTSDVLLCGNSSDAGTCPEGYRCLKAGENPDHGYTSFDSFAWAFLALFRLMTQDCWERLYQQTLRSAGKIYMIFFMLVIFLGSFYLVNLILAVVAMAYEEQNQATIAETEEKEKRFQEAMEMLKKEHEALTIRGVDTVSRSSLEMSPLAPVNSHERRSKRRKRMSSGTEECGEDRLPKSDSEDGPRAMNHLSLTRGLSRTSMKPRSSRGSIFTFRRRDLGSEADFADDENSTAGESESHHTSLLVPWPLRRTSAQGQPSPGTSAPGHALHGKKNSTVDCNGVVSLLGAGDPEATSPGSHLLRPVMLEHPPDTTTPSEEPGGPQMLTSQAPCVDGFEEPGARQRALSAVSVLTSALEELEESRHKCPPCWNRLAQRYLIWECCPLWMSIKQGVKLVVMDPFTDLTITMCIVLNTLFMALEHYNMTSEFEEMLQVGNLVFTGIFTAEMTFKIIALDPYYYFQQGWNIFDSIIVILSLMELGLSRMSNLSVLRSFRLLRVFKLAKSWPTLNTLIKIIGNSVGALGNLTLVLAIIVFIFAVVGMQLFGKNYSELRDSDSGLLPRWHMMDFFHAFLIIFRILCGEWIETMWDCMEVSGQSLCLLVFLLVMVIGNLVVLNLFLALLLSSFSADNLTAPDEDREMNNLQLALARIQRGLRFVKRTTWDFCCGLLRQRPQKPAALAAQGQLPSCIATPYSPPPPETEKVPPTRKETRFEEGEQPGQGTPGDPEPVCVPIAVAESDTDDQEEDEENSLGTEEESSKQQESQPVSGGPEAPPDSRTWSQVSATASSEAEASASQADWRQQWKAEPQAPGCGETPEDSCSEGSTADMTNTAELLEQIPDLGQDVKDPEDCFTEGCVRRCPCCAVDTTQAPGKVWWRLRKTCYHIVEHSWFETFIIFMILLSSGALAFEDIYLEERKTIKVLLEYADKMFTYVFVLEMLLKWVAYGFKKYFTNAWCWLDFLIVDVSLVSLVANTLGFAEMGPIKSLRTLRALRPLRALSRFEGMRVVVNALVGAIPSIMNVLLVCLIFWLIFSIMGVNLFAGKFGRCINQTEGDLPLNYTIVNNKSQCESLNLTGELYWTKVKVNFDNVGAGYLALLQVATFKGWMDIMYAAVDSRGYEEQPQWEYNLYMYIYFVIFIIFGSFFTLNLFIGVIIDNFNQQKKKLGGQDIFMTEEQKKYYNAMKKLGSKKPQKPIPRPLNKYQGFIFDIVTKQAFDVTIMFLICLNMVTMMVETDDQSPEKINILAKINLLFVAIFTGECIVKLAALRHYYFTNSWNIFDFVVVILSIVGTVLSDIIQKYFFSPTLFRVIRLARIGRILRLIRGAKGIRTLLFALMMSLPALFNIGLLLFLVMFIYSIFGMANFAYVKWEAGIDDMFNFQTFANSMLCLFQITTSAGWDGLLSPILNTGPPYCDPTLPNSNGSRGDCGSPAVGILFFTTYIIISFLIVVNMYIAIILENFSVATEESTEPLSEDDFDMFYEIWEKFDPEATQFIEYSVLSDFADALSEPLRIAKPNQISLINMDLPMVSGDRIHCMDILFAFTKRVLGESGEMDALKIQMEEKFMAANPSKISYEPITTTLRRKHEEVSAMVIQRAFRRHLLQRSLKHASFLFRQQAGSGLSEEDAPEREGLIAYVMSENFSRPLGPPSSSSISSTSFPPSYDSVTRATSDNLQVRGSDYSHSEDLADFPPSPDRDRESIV

Cav1.2 [2] = target: T1, Cav1.2; assay: whole-cell patch clamp of ICa in transfected HEK293 cells, VH -80 mV; IC50 undefined (solubility); settings: read-out: % reduction of ICa amplitude at 30 μM

T1 sequence (Q13936 whole entry): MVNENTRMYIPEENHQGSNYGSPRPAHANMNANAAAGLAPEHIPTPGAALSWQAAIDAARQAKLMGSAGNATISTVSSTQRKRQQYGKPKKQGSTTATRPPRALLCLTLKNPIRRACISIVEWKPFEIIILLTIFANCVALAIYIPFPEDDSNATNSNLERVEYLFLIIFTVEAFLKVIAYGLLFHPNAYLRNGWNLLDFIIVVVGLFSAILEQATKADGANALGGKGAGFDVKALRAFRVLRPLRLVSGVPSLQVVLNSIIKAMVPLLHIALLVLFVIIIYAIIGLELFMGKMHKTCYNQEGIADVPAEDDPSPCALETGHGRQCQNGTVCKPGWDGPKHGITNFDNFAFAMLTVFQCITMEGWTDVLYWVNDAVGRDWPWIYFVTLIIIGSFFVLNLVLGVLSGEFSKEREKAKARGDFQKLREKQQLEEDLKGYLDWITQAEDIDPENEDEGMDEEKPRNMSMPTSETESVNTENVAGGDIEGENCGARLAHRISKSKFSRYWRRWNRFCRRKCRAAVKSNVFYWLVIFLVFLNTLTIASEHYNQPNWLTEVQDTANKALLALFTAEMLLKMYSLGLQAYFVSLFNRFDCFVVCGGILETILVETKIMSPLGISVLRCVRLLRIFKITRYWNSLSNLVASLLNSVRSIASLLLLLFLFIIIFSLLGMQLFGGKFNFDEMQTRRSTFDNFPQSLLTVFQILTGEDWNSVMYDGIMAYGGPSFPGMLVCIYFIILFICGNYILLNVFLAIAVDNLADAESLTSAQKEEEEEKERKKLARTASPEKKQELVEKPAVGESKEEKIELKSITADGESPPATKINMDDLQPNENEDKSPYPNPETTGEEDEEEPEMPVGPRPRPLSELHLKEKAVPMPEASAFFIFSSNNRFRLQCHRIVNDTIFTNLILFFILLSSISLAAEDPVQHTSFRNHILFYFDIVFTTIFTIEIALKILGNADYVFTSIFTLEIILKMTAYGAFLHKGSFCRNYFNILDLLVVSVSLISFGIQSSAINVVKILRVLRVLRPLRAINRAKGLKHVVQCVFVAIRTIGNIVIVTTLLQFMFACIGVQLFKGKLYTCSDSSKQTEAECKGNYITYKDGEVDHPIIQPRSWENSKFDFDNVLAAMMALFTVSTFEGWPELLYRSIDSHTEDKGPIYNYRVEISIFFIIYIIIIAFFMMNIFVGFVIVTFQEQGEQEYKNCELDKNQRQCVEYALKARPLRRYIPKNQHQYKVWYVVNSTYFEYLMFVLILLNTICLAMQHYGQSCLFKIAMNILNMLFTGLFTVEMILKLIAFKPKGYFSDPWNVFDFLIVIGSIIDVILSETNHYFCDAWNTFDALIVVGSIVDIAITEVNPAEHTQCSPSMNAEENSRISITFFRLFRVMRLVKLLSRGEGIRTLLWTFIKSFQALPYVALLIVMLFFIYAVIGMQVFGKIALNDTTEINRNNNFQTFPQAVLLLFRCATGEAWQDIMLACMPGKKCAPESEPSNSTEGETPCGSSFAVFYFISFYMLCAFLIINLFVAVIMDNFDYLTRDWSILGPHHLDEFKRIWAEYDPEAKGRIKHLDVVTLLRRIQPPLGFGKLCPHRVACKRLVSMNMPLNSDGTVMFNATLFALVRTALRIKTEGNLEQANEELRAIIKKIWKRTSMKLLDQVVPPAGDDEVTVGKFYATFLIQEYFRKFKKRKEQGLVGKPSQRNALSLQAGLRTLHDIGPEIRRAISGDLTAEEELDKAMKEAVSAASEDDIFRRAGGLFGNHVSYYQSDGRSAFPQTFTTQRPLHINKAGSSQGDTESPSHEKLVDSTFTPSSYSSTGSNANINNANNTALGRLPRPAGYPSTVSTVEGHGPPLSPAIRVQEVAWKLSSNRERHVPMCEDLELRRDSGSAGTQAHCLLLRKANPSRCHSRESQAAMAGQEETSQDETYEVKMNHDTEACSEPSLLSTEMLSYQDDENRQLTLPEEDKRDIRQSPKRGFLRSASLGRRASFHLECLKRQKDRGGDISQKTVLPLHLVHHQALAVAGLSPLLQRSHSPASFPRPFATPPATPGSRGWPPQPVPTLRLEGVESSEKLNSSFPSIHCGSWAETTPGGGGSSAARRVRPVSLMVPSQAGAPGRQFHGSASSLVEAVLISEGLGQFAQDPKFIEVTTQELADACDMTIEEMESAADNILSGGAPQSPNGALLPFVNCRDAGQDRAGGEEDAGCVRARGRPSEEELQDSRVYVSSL

Row | SMILES | inhibition at 1 µM (Cav1.2 [1]) [%] | whole-cell patch clamp in transfected HEK293 cells; steady-state inactivation le (Nav1.5) | inhibition at 30 µM (Cav1.2 [2]) [%]
1 | COC(=O)C1=C(C)NC(C)=C(C(=O)OC)C1c1ccccc1[N+](=O)[O-] [Nifedipine] | ~97.9 | – | –
2 | CC(=O)Oc1ccc(-c2cc(=O)c3c(O)c4c(cc3o2)OC(c2ccccc2)(c2ccccc2)O4)cc1 [10e, 4-(9-Hydroxy-8-oxo-2,2-diphenyl-8H-[1,3]dioxolo[4,5-g]chromen-6-yl)phenyl acetate] | – | −94.1 ± 1.7 mV (inactivation V1/2 at 30 μM; control −84.4 ± 0.6 mV) | ~32.6
